We go through 78 molecules from paper PMC12037410, “Pharmacological targeting of BMAL1 modulates circadian and immune pathways” (Nature Chemical Biology, 2025).

Sequence of BMAL1 (O00327 338-449): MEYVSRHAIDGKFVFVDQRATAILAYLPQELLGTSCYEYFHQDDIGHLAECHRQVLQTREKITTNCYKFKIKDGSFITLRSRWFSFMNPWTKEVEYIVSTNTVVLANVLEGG

The assay concerns the target BMAL1 (Homo sapiens, UniProt O00327). Also noted: PASB domain (residues 338–449); Protein thermal shift (PTS) fragment screen on recombinant human BMAL1(PASB), shift of melting temperature. Particulars: dTmB; binder.
For the molecule `NS(=O)(=O)c1cc(C(=O)O)ccc1Cl` [Prestw-Frag-2051, Compound 160], the “Bmal1(PASB) dTmB” value was determined as 0.10 °C.

Turning to `Oc1cccc(CN2CCCCC2)c1` [Prestw-Frag-2809, Compound 115], the “Bmal1(PASB) dTmB” value is -0.43 °C. The result for `NC(=O)Cc1ccccc1` [Prestw-Frag-2580, Compound 73] reads -0.74 °C; that for `OCc1ccc2c(c1)OCO2` [Prestw-Frag-3741, Compound 372], -0.20 °C; that for `O=C(Nc1ccccc1Cl)c1ccccc1O` [Prestw-Frag-1545, Compound 383], 1.33 °C. `Clc1cccc(N2CCNCC2)c1Cl` [Prestw-Frag-2853, Compound 42]: the “Bmal1(PASB) dTmB” value is -1.63 °C.

With `CC(=O)NCCc1c[nH]c2ccccc12` [Prestw-Frag-1478, Compound 417], the “Bmal1(PASB) dTmB” value is -0.27 °C. As to `COC(=O)c1scc(C)c1N` [Prestw-Frag-1111, Compound 362], the “Bmal1(PASB) dTmB” value is -0.95 °C. As to `c1ccc(Cn2ccnc2)cc1` [Prestw-Frag-2620, Compound 329], the “Bmal1(PASB) dTmB” value is -0.49 °C. On to `NCC(O)COc1cccc2ccccc12` (stereo not drawn) [Prestw-Frag-1389, Compound 450], for which the “Bmal1(PASB) dTmB” value was determined as 1.58 °C. The same measure for `ClC1(Cl)CC1c1ccccc1` (stereo not drawn) [Prestw-Frag-2566, Compound 328]: 0.06 °C.

Consider `Cc1cn(-c2cc(N)cc(C(F)(F)F)c2)cn1` [Prestw-Frag-3241, Compound 458], for which the “Bmal1(PASB) dTmB” value is -2.09 °C.

Take `CC(=O)c1ccc2c(c1)OCO2` [Prestw-Frag-3686, Compound 57]: the “Bmal1(PASB) dTmB” value was -1.06 °C. The same measure for `Cc1cc(C)[nH]c(=O)n1` [Prestw-Frag-3247, Compound 190]: 0.01 °C; for `Cn1c(N)nc2ccccc21` [Prestw-Frag-3740, Compound 377]: -0.10 °C; for `O=C(O)c1cc(-c2ccccc2)ccc1O` [Prestw-Frag-1240, Compound 74]: -0.48 °C.

For the molecule `O=C(O)Cc1ccccc1` [Prestw-Frag-2579, Compound 132], the “Bmal1(PASB) dTmB” value is -0.05 °C.

Regarding `Oc1ccc(Cc2ccccc2)cc1` [Prestw-Frag-3455, Compound 469], the “Bmal1(PASB) dTmB” value is -2.61 °C. Turning to `c1cnccn1` [Prestw-Frag-2501, Compound 209], the “Bmal1(PASB) dTmB” value amounted to 0.00 °C. The same measure for `c1ccc2c(c1)OCO2` [Prestw-Frag-2299, Compound 175]: -0.52 °C; for `NC1CCN(Cc2ccccc2)CC1` [Prestw-Frag-2060, Compound 207]: -0.05 °C.

As for `CN(C)Cc1ccc(CSCCN)o1` [Prestw-Frag-1889, Compound 8], the “Bmal1(PASB) dTmB” value was -2.44 °C. The same measure for `COc1ccc2ccncc2c1` [Prestw-Frag-1133, Compound 321]: -1.08 °C; for `NS(=O)(=O)c1ccccc1` [Prestw-Frag-1895, Compound 148]: -0.29 °C; for `CC(=O)c1ccccc1O` [Prestw-Frag-1884, Compound 211]: -0.17 °C.

Turning to `O=C(O)CCCc1ccc(-c2ccccc2)cc1` [Prestw-Frag-1767, Compound 455], the “Bmal1(PASB) dTmB” value is -2.43 °C. For the molecule `O=c1[nH]nc(Cc2ccccc2)c2ccccc12` [Prestw-Frag-1561, Compound 106], the “Bmal1(PASB) dTmB” value was -0.90 °C.

As to `CC(=O)C1CCNCC1` [Prestw-Frag-3756, Compound 333], the “Bmal1(PASB) dTmB” value is -0.19 °C. For `NNC(=O)c1ccccc1` [Prestw-Frag-1420, Compound 187], the “Bmal1(PASB) dTmB” value is -0.31 °C. The result for `Nc1nc2ccccc2n1Cc1ccc(F)cc1` [Prestw-Frag-1050, Compound 460] reads -1.64 °C; that for `COC(=O)C1=C(C)NC(C)=C(C(=O)OC)C1` [Prestw-Frag-1547, Compound 26], -1.89 °C. The result for `c1ccc2c3c([nH]c2c1)CCCC3` [Prestw-Frag-2780, Compound 46] reads -0.19 °C; that for `N#CC1(c2ccc(F)cc2)CCCCC1` [Prestw-Frag-2647, Compound 433], -0.64 °C; that for `CS(=O)(=O)NC(Cc1ccccc1)C(=O)O` (stereo not drawn) [Prestw-Frag-3362, Compound 137], 0.29 °C.

With `NC(=O)CN1C(=O)c2ccccc2C1=O` [Prestw-Frag-1661, Compound 297], the “Bmal1(PASB) dTmB” value was -0.12 °C. Regarding `Cc1[nH]c2ccccc2c1CC(=O)O` [Prestw-Frag-1824, Compound 477], the “Bmal1(PASB) dTmB” value is -6.48 °C. Consider `CCCC(=O)Nc1ccc(O)c(C(C)=O)c1` [Prestw-Frag-1716, Compound 95], for which the “Bmal1(PASB) dTmB” value is -1.04 °C. The result for `CCCOc1ccccc1C(=N)N` [Prestw-Frag-1910, Compound 398] reads -0.43 °C; that for `Cc1cccc(C)c1NC(=O)CN1CCNCC1` [Prestw-Frag-1996, Compound 391], -0.66 °C. For `NC(N)=NC(N)=Nc1ccc(Cl)cc1` [Prestw-Frag-2722, Compound 143], the “Bmal1(PASB) dTmB” value is -0.89 °C.

In the case of `O=c1[nH]cncc1-c1ccccc1` [Prestw-Frag-3734, Compound 254], the “Bmal1(PASB) dTmB” value is -0.26 °C. The result for `CN1[C@@H]2CC[C@H]1CC(O)C2` (stereo partly drawn) [Prestw-Frag-0608, Compound 128] reads -0.41 °C; that for `NC(=O)Cc1cccs1` [Prestw-Frag-1019, Compound 237], -0.24 °C. The same measure for `O=C(O)CC[C@H](NC(=O)c1ccccc1)C(=O)O` [Prestw-Frag-1499, Compound 195]: 0.09 °C; for `FC(F)(F)c1nnc2n1CCNC2` [Prestw-Frag-3253, Compound 136]: 0.11 °C. For `NNC(=O)c1ccncc1` [Prestw-Frag-1419, Compound 226], the “Bmal1(PASB) dTmB” value was -0.26 °C.

In the case of `O=C(COc1ccc(Cl)cc1)N1CCNCC1` [Prestw-Frag-1832, Compound 244], the “Bmal1(PASB) dTmB” value was -1.08 °C. For the molecule `Nc1cccnn1` [Prestw-Frag-2072, Compound 233], the “Bmal1(PASB) dTmB” value is -0.18 °C. As for `COC(=O)C(c1ccccc1)c1ccccc1` [Prestw-Frag-1013, Compound 353], the “Bmal1(PASB) dTmB” value was -1.32 °C. `CCOc1ccccc1C(=N)N` [Prestw-Frag-3314, Compound 150]: the “Bmal1(PASB) dTmB” value is -0.32 °C. The result for `Cc1nc(-c2ccccc2F)cs1` [Prestw-Frag-3745, Compound 298] reads -0.20 °C; that for `Cc1cnc(C(=O)O)cn1` [Prestw-Frag-1494, Compound 98], 0.14 °C; that for `CC(C)CC(N)C1(c2ccc(Cl)cc2)CCC1` (stereo not drawn) [Prestw-Frag-1566, Compound 459], -2.54 °C.

As to `Nc1ncnc2c1ncn2CCO` [Prestw-Frag-3329, Compound 91], the “Bmal1(PASB) dTmB” value is -0.48 °C. The result for `OCC(O)COc1ccccc1` (stereo not drawn) [Prestw-Frag-1337, Compound 306] reads 0.63 °C; that for `O=C(O)CC(c1ccccc1)c1ccccc1` [Prestw-Frag-3250, Compound 130], -0.49 °C. The same measure for `Cc1ccc(S(N)(=O)=O)cc1` [Prestw-Frag-1894, Compound 198]: -0.38 °C; for `Nc1ccccn1` [Prestw-Frag-2443, Compound 228]: 0.09 °C; for `Cc1ccccc1NC(=O)C(C)N` (stereo not drawn) [Prestw-Frag-1856, Compound 389]: 0.12 °C. With `O=C1CC2(CCCC2)CC(=O)N1` [Prestw-Frag-3680, Compound 36], the “Bmal1(PASB) dTmB” value was -2.38 °C. For the molecule `O=C(NCc1cccnc1)c1ccc(O)cc1` [Prestw-Frag-1747, Compound 457], the “Bmal1(PASB) dTmB” value was -0.46 °C.

For the molecule `O=C(CCN1CCCCC1)c1ccccc1` [Prestw-Frag-1953, Compound 479], the “Bmal1(PASB) dTmB” value is -3.22 °C. The same measure for `NC1CCC(=O)NC1=O` (stereo not drawn) [Prestw-Frag-3716, Compound 102]: -0.05 °C; for `Oc1ccccc1OCC(F)(F)F` [Prestw-Frag-3225, Compound 113]: -0.44 °C.

As to `O=C(Cc1ccccc1)c1ccccc1` [Prestw-Frag-2219, Compound 440], the “Bmal1(PASB) dTmB” value was -0.71 °C. As to `Cc1nccn1CCO` [Prestw-Frag-1517, Compound 258], the “Bmal1(PASB) dTmB” value is -0.20 °C. In the case of `CC1(c2ccccc2)NC(=O)NC1=O` (stereo not drawn) [Prestw-Frag-2652, Compound 273], the “Bmal1(PASB) dTmB” value was -0.17 °C. The result for `CC(N)COc1ccccc1` (stereo not drawn) [Prestw-Frag-1691, Compound 270] reads 0.11 °C; that for `COc1ccc(C(F)(F)F)cc1` [Prestw-Frag-2108, Compound 203], -0.12 °C; that for `CNCC(c1ccc(OC)cc1)C1(O)CCCCC1` (stereo not drawn) [Prestw-Frag-1523, Compound 157], -0.81 °C. For the molecule `FC(F)(F)c1ccn[nH]1` [Prestw-Frag-3726, Compound 192], the “Bmal1(PASB) dTmB” value was 0.30 °C. The result for `OC(c1ccccc1)c1ccccc1` [Prestw-Frag-1122, Compound 454] reads -1.61 °C; that for `Clc1cccc2ncccc12` [Prestw-Frag-2593, Compound 66], -0.75 °C; that for `NC(=O)[C@H](N)c1ccccc1` [Prestw-Frag-1099, Compound 271], -0.22 °C.

Take `Cc1cc(N)no1` [Prestw-Frag-1647, Compound 292]: the “Bmal1(PASB) dTmB” value was -0.16 °C. The result for `O=c1[nH]c2ccccc2n1C1CCNCC1` [Prestw-Frag-1587, Compound 407] reads -0.86 °C. Turning to `NC(=O)c1ccccn1` [Prestw-Frag-2131, Compound 358], the “Bmal1(PASB) dTmB” value is -0.11 °C. As for `CCN1CCCC1CN` (stereo not drawn) [Prestw-Frag-3671, Compound 99], the “Bmal1(PASB) dTmB” value is -0.56 °C.
